{"source": "patent US20090105189A1", "about": "“METHODS AND COMPOSITIONS FOR AMELIORATING OR INHIBITING DECLINE IN MEMORY OR INTELLIGENCE OR IMPROVING SAME” (priority 2006, published 2009)", "key": {"[1]": {"assay": "Brain CDP-choline levels after oral UMP in gerbils", "type": "in vivo, gerbil", "details": "UMP 1 mmole/kg by gavage, for 30 min after administration", "description": "Brain tissue or cells was dissolved in methanol/chloroform (1:2 vol/vol), centrifuged, and the aqueous phase was dried under vacuum, resuspended in 100-200 μL water and separated by HPLC on an ion-exchange column (Alltech Hypersil APS-2, 5 μM, 250×4.6 mm). CDP-choline was eluted with a linear gradient of NaH2PO4 buffers A (1.75 mM NaH2PO4, pH 2.9) and B (500 mM, pH 4.5), which allowed resolution of CDP-choline from closely co-eluting substances such as UMP over 40 min. The retention time for CDP-choline was 9.5 min. Individual nucleotide peaks were detected by UV absorption at […], and were identified by comparison with the positions of authentic standards, as well as by the addition of nucleotide standards to selected samples."}, "[2]": {"test_system": "gerbils", "assay": "Working memory and reference memory assay (modified radial arm maze) in gerbils", "type": "in vivo, gerbil", "details": "0.1% UMP diet, four weeks", "excerpt": "Groups of ten gerbils fed control or 0.1% UMP diet for four weeks and trained to successfully find all of the food pellets as described above were then given a modified test, in which only two arms of the maze (but always the same two) contained food pellet rewards. In this test, a working memory error is one in which a gerbil revisits an arm from which it has already taken the pellet that day."}, "[3]": {"test_system": "Aging rats", "assay": "Morris water maze in aging rats on UMP diet", "type": "in vivo, rat", "details": "aging rats 18 months, 2.5% diet, six weeks", "excerpt": "Aging rats (I 8 months, 500 g) were fed a control diet or a diet containing 2.5% UMP diets for six weeks. They were then shown a hidden platform in a six-foot diameter pool of water, placed somewhere in each of the four quadrants of the pool in turn, and were allowed 90 seconds in each trial to attempt to relocate the platform by swimming, and the swimming time “mean escape latency” recorded. The set of four trials was repeated on each of four consecutive days. The platform was in the same place each day. This test, known as the Morris water maze, is an indicator of spatial memory."}, "[4]": {"assay": "Plasma uridine levels after oral UMP in healthy human subjects", "type": "in vivo", "details": "humans, oral UMP 500, 1000 or 2000 mg; baseline and 1, 2, 4, 8 hr", "description": "1-milliliter (mL) samples of heparinized plasma were spiked with 1 μg fluoro-uridine for use as an internal standard, then deproteinized by adding methanol (5 mL).\nAll steps were performed at 4° C. Boronate affinity columns (Affigel-601, Bio-Rad) were primed with two 5-mL ammonium acetate washes, samples were applied, and columns were washed again with ammonium acetate, after which the nucleosides were eluted with 0.1 N formic acid (7 mL). Eluates were lyophilized, then reconstituted in 100 μL water for HPLC analysis.\nHPLC analysis was performed using a Beckman System Gold apparatus (Beckman Instruments) equipped with a Rainin Dynamax Microsorb C18 column (3 μm packing; 4.6×100 mm) at room temperature. The standard HPLC method is described in Lopez-Coviella et al, (J. Neurochem 65: 889-894, 1995). For modified HPLC, an isocratic elution buffer was used containing 0.004 N potassium phosphate buffer (pH 5.8) and 0.1% methanol instead of formic acid, flowing at 1 mL/min and heated to 35°.\nEight healthy subjects (5 male, 3 female, 27-67 years old) were instructed to fast overnight and given sequentially increasing doses (500, 1000, and 2000 mg) of disodium UMP (Numico, Wageningen, NL) at 7-8 AM on each of three days, separated by at least a three-day washout period. All subjects were given lunch. Blood samples were drawn over an eight-hour period into heparinized tubes. […]"}, "[5]": {"test_system": "Sprague Dawley rats", "assay": "Hidden platform water maze and probe test in EC and IC rats on UMP diet", "type": "in vivo, rat", "details": "for Rate of acquisition of hidden platform water maze task: 0.1% UMP-2Na+ diet 3 months", "description": "(§1) Behavioral training was carried out between 10:00 AM-2:00 PM, in a blinded manner. Rats received a 4-d training session consisting of 4 trials (i.e., swims) per day to locate the hidden platform (1.5 cm below the water surface), which remained in the same position across trials for individual animals (i.e. within one of 4 quadrants). On each trial the animal was placed into the tank facing the wall at one of 4 designated start points (N, S, E, and W) and allowed to escape onto the hidden platform. A different starting point was used on each trial such that each starting point was used once each day. […] After mounting the platform, rats remained on the platform for 20 seconds. Following each trial, animals were removed from the maze and placed in a holding cage for a 30 second inter-trial interval (ITI). The latency to mount the escape platform was used as a measure of task acquisition.\n(§2) On day 5, the rats were given a probe test. For this, the platform was removed and the swim path and time spent searching in the quadrant of the pool that previously contained the platform were measured over 60 s. This provides a measurement for the retention of spatial memory and indicates whether a spatial strategy was used during hidden platform training."}, "[6]": {"test_system": "Fischer 344 rats", "assay": "In vivo microdialysis of striatal neurotransmitter release in aged rats on UMP diet", "set-up": "species or system rat", "details": "for K+-evoked striatal DA release (basal = 100%): control 283±9%"}, "[7]": {"assay": "Body weight of rats on UMP-supplemented diet", "type": "in vivo, rat", "excerpt": "Animals were weighed weekly to ensure that UMP-treated and untreated rats were eating equivalent amounts of food. […] Also, there was no difference in body weight between the EC and IC groups."}, "[8]": {"test_system": "gerbils", "assay": "Food pellet learning assay (radial arm maze) in gerbils", "type": "in vivo, gerbil", "details": "young adult gerbils, 0.1, 0.5 or 2.5% UMP chow, three weeks", "description": "Male young adult gerbils fed control or UMP-containing chow (0, 0.1, 0.5 or 2.5%) ad lib for three weeks were tested in a radial arm maze, consisting of a central chamber with four branches primed with a small food pellet at the end of each. Before testing, animals were fasted overnight; each animal was then placed in the central chamber and allowed up to 180 seconds to find all of the pellets. A shorter time required to find the pellets is indicative of improved learning and spatial memory."}, "[9]": {"test_system": "Sprague Dawley rats", "assay": "Visible platform water maze task in EC and IC rats on UMP diet", "type": "in vivo, rat", "details": "UMP-supplemented diet", "quoted_text": "Four starting positions (north, south, east, west) were spaced around the perimeter of the tank, dividing the pool into four equal quadrants. For the visible platform version of the water maze, a white rubber ball (8 cm in diameter) was attached to the top of the submerged platform and protruded above the water surface. The platform could be used as a step to mount the ball to escape the water. A video camera was mounted directly above the water maze; this camera was linked to a computer with video tracking software to automatically record the escape latency (time to reach the platform), distance traveled (length of swim path taken to find the platform), and swim speed (HVS Image Ltd; Buckingham, UK). One week after completion of the 4-day/4 trials per day spatial training task, the rats from the above Example received 4 training sessions consisting of 4 trials (i.e., swims) per day. On each trial the animal was placed into the tank facing the wall at one of four designated start points (N, S, E, and W) and allowed to escape onto the visibly cued platform. A different starting point was used on each trial such that each starting point was used each day. In addition, the visible escape platform was placed in a different quadrant on each trial such that each of the four quadrants contained the escape platform once each day. […]"}, "[10]": {"test_system": "rats", "details": "EC and IC rats, choline-supplemented vs control diet", "excerpt": "(§3) Animals were maintained as described for Example 13. For the first experiment (FIGS. 24-26), male pups were removed at postnatal d 23, separated into small groups, and allowed to acclimatize for 1 week. Pups were assigned to either the […] or IC condition; rats were matched according to body weight at PN day 23. […] Thus rats were fed the diets and were enriched or impoverished from 30-120 d of age.\n(§4) The water maze was a black circular tank 1.83 m in diameter and 0.55 m in height, filled with water (25 C) to a depth of 20 cm and located in a room containing several extramaze cues. Four starting positions (N, S, E, and W) were spaced around its perimeter, dividing the pool into 4 equal quadrants. The rectangular clear Plexiglas escape platform used for the spatial task (11×14×19 cm) was submerged at a depth of […]. For the cured version of the water maze, a white rubber ball 8 cm in diameter attached to the top of the submerged platform protruded above the water surface. The platform could be used as a step to mount the ball to escape from the water."}, "[11]": {"test_system": "rats", "details": "IC rats", "description": "as §1, §2, §3\nFor the second experiment, 4 groups of IC rats were utilized, as depicted below:\nFour diets were prepared containing different amounts of CDP-choline. Mean weekly intakes were monitored for all rats, and the diets were adjusted so that rats would receive 500 mg/kg/d.\nas §4"}, "[12]": {"details": "aged rats, UMP diet 1 week or 6 weeks vs control"}, "[13]": {"details": "500 mg/kg/d for 3 mo, 4 d of training"}}}
{"compound": "O=c1ccn([C@@H]2O[C@H](COP(=O)([O-])[O-])[C@@H](O)[C@H]2O)c(=O)[nH]1.[Na+].[Na+]", "note": "[UMP, uridine-5′-monophosphate disodium]", "values": [{"measurement": "Brain CDP-choline levels", "setting": "[1]", "result": "rose significantly in a linear fashion"}, {"measurement": "Reference memory errors", "setting": "[2]", "result": "reduced numbers"}, {"measurement": "Working memory errors", "setting": "[2]", "result": "reduced numbers"}, {"measurement": "Time required to reach the platform (mean escape latency), Morris water maze", "setting": "[3]", "result": "statistically significant reduction in the time required to reach the location of the platform"}, {"measurement": "Plasma uridine levels", "setting": "[4]", "result": "increased in response to oral UMP in a dose-dependent fashion"}, {"measurement": "Rate of acquisition of hidden platform water maze task", "setting": "[5]; EC rats, vs EC-CONT (P<0.09)", "result": "acquired the task at a faster rate than EC-CONT rats"}, {"measurement": "Rate of acquisition of hidden platform water maze task", "setting": "[5]; IC rats, vs IC-CONT", "result": "acquired the task at a significantly faster rate than did IC-CONT rats"}, {"measurement": "Time in the correct quadrant, 60 s probe test", "setting": "[5]; IC rats, UMP diet, vs IC-CONT", "result": "spent significantly more time in the correct quadrant than IC-CONT rats"}, {"measurement": "Basal DA levels in striatal dialysate", "setting": "[6]; aged rats, 2.5% UMP diet 1 or 6 weeks vs control", "result": "did not affect"}, {"measurement": "K+-evoked striatal DA release (basal = 100%)", "setting": "[6]; aged rats, 2.5% UMP diet 1 week, not significant", "result": "316±15", "unit": "%"}, {"measurement": "K+-evoked striatal DA release (basal = 100%)", "setting": "[6]; aged rats, 2.5% UMP diet 6 weeks", "result": "341±21", "unit": "%"}, {"measurement": "Basal DOPAC levels in striatal dialysate", "setting": "[6]; [12]", "result": "no effects"}, {"measurement": "Basal HVA levels in striatal dialysate", "setting": "[6]; [12]", "result": "no effects"}, {"measurement": "Basal release of acetylcholine in corpus striatum", "setting": "[6]; rats, dietary UMP", "result": "increase the basal release"}, {"measurement": "Mean body weights", "setting": "[7]; Sprague Dawley EC/IC rats, 0.1% UMP-2Na+ diet, vs control groups", "result": "No significant differences in mean body weights"}, {"measurement": "Body weight", "setting": "[7]; aged Fischer 344 rats, 2.5% UMP-2Na+ diet, 0-6 weeks", "result": "neither UMP-diet (vs. control) nor UMP×time interaction affected body weight"}, {"measurement": "Time required to find the food pellets, radial arm maze", "setting": "[8]", "result": "reduced the time required for gerbils to find the pellet in a dose-dependent manner"}, {"measurement": "Striatal-based (stimulus-response) memory, visible platform water maze", "setting": "[9]", "result": "little or no effect"}]}
{"compound": "cytidine-diphosphocholine", "values": [{"measurement": "Escape latencies, visible platform task", "setting": "[10]", "result": "No main effects of diet"}, {"measurement": "Escape latencies of initial trials on last 3 d of spatial training", "setting": "[11]; 500 mg/kg/d for 3 mo", "result": "restored normal behavior"}, {"measurement": "Swim time in target quadrant, 60-sec probe test", "setting": "[11]; 500 mg/kg/d for 3 mo", "result": "restored normal behavior"}, {"measurement": "Distance traveled to find the hidden platform", "setting": "[11]; [13]", "result": "restored normal behavior"}, {"measurement": "Escape latencies, hidden platform task", "setting": "[11]; [13]", "result": "exhibited normal latencies"}, {"measurement": "Escape latencies, hidden platform task (second experiment)", "setting": "[11]; high-choline diet for 3 mon vs untreated IC rats", "result": "different significantly from untreated IC rats"}, {"measurement": "Swim time in target quadrant, 60-sec probe test (second experiment)", "setting": "[11]; high-choline diets for 3 mon", "result": "swam for a significantly longer time in the target quadrant"}]}
